Test results from publication PMC9686516, “Pharmacokinetic Characteristics of Nebulized Colistimethate Sodium Using Two Different Types of Nebulizers in Critically Ill Patients with Ventilator-Associated Respiratory Infections” (Antibiotics, 2022).
Read-outs that look alike come from different tables or passages of the source. Where a SMILES comes first, the peptide text is derived from it. Bridges are numbered along the chain shown (N, C = ends). [ ]: non-standard residue; d: D form. The star is where a group is joined. X1 = CC[C@H](C)CCCCC(=O)*; Dab = NCC[C@H](N)C(=O)O

Experiments:
Klebsiella pneumoniae = conditions: in vitro experiments, typical plasma maximum concentrations; cited from earlier work
[1] = adjunctive aerosolized colistin; meta-analysis of mostly observational data; cited from earlier work
Text: The rationale has been the theoretic ability to achieve sufficient concentration in the infectious milieu of the lung parenchyma while sparing any significant systemic adverse outcome. In contrast to these theoretical considerations, inhaled CMS has only had modest efficacy and in ...

[2] = 1 mIU of CMS via VMN; similar ICU setting; median (IQR); cited from earlier work
Method: In this single-center study, we compared the pharmacokinetic properties of formed colistin in the ELF and the plasma compartment when inhaled CMS, at a typical dose, was administered either via a VMN or a generic JN. […] Indeed, the median total (as opposed to unbound) AUC0–24 in the ELF for the two modalities were 86.2 and 91.5 mg/L*h for VMN and JN, respectively. […] However, the ELF exposure was similar, despite the higher dose, probably due to a higher clearance from the lung compartment in our study, as evidenced by the ... || Contrarily, our results were only marginally compatible with the results of Boisson et al. and Gkoufa et al.. In the former study, the range of colistin concentration in the ELF following a 2 mIU inhalation spanned from 9.53 to 1137 mg/L [14], while it was between 0.8 mg/L and 57.9 mg/L in the present study. In the latter study, the exact values were not reported, however in the figured data it was shown that after an inhalation of 3 to 5 mIU of CMS, formed colistin concentrations were in the range of 10^2 to 10^3 mg/L [16]. Again, it is not known whether these differences we ...

[3] = Colistin pharmacokinetics in epithelial lining fluid (ELF) after nebulized CMS in ventilated VARI patients; format: in vivo, human; conditions: 2 mIU CMS inhaled; for AUC0–8 h: ELF (mini-BAL, urea-corrected), no systemic CMS, HPLC-fluorescence; for AUC0–8 h / Volume of distribution/ fraction of dose absorbed / Clearance/fraction of dose absorbed / Cmax: NCA; for AUC0–8 h / Volume of distribution/ fraction of dose absorbed / Clearance/fraction of dose absorbed / Cmax / AUC0–24 / Cmin / Tmax / level at 1 h / level at 4 h / level at 6 h / level at 8 h: median (IQR); for Ccolistin over 2 mg/L, frequency of patients / Ccolistin over 4 mg/L, frequency of patients / Volume of distribution/ fraction of dose absorbed / Clearance/fraction of dose absorbed / Cmax / AUC0–24 / Cmin / Tmax / level at 1 h / level at 4 h / level at 6 h / level at 8 h: ELF; for Volume of distribution/ fraction of dose absorbed: dose/(λ × AUCinf); for Clearance/fraction of dose absorbed: dose/AUCinf; for AUC0–24: calculated as AUCinf × 3 (thrice daily), total colistin; for level at 1 h / level at 4 h / level at 6 h / level at 8 h / Kp: human, inhaled or intranasal, 2 mIU; for level at 1 h / level at 4 h / level at 6 h / level at 8 h: epithelial lining fluid (ELF), read-out: Ccolistin,ELF; for level at 1 h: 1 h post-nebulization; for level at 4 h: 4 h post-nebulization; for level at 6 h: 6 h post-nebulization; for level at 8 h: 8 h post-nebulization; for Kp: epithelial lining fluid (ELF)/plasma, ELF/plasma mean concentration ratio, mean (SD), SD
Text: The study population consisted of 24 critically ill adult patients, admitted to the intensive care unit of the First Department of Pulmonology of the National and Kapodistrian University of Athens between June 2014 and November 2017. All patients were intubated and mechanically ventilated, and received inhaled CMS as part of their treatment for VAP or VAT caused by Gram-negative pathogens. Subjects were studied around the first dose of nebulized treatment, which always preceded intravenous treatment, to avoid confounding by colistin (or CMS) reaching the ELF via the systemic circulation. We excluded patients that received a dose different to the institution’s standard of 2 million international units (mIU) (~160 mg) of CMS and patients who were planned to receive intravenous colistin within 8 h of nebulization initiation.
A dose of 2 mIU of CMS (Colistin®, Norma Hellas, Athens, Greece), corresponding to approximately 160 mg CMS or 68 mg colistin-base activity, was nebulized over a 10–30 min period via either VMN (Aeroneb Solo with Aeroneb Pro controller, Aerogen, Galway, Ireland) or generic JN. This was not a randomized trial, and the nebulizer selection was exclusively a matter of availability of VMN consumables in the ICU at the time. The intended dose was dissolved in 4 mL of normal saline 0.9%. The nebulizer was placed at the inspiratory limb of the ventilator circuit, at 15 cm from the Y-piece, and the heat and moisture exchanger was removed. During nebulization, the patients were sedated and ventilated using assist volume controlled mode, with tidal volume set at 8 mL/kg of ideal body weight, a constant squared-wave inspiratory flow, a positive end expiratory pressure (PEEP) of less than or equal to 10 cm H2O, an inspiratory to expiratory time ratio equal to 1, an inspiratory pause of 10%, and a respiratory rate set at 15/min [31].
[…] The catheter was inserted through the endotracheal tube. The lavage was performed with instillation of 2 syringes of 20 mL sterile normal saline at room temperature through the catheter. The aspirate from the first syringe was considered representative of bronchial washing and was, therefore, discarded. The aspirate from the second syringe was collected and centrifuged in frigid centrifuge (3500× g for 10 min at 4 °C) immediately (<2 min) to avoid falsely elevated levels of urea in BAL [34] and CMS hydrolysis to formed colistin. The supernatant liquid was stored in plastic micro test tubes (Safe-lock; Eppendorf AG; Hamburg, Germany) and frozen at –80 °C, until analysis.
Colistin concentrations in plasma (Ccolistin,plasma) and epithelial lining fluid (Ccolistin,ELF) were measured through high performance liquid chromatography (HPLC)-fluorescence analysis.
The samples were rapidly centrifuged, and plasma and BAL supernatant were separated and kept frozen (−80 °C) before analysis, as previously described. An HPLC-RF assay was used for colistin concentration measurements in plasma and BAL fluid samples, based on the method of Li et al., as modified by Markou et al. and Ratjen et al.. Briefly, netilmicin was used as the internal standard and the method consisted of a protein precipitation step with trifluoracetic acid (TFA), followed by colistin derivatization with 9-fluorenylmethyl chloroformate on a solid phase extraction C18 cartridge. The eluted fluid was dried under vacuum and the solid residue was reconstituted in mobile phase for subsequent reversed-phase HPLC with fluorescence detection (excitation: 260 nm; emission: 316 nm). The analytical column was a Phenomenex Luna C18, 3 μm, 50 mm × 3 mm with 100 Å particle size, while the mobile phase consisted of ACN/THF/H2O (80/7.7/12.3%) with a flow rate of 0.5 mL/min. The injection volume was 20 μL. The method was linear at a concentration range of 0.10–4.8 mg/L (R^2 = 0.999). […]

CC[C@H](C)CCCCC(=O)N[C@@H](CCN)C(=O)N[C@H](C(=O)N[C@@H](CCN)C(=O)N[C@H]1CCNC(=O)[C@H]([C@@H](C)O)NC(=O)[C@H](CCN)NC(=O)[C@H](CCN)NC(=O)[C@H](CC(C)C)NC(=O)[C@@H](CC(C)C)NC(=O)[C@H](CCN)NC1=O)[C@@H](C)O [colistin] (X1-[Dab]T[Dab][Dab][Dab][dL]L[Dab][Dab]T; lactam 4-C)
fAUC/MIC linked to 2-log killing (Klebsiella pneumoniae): 25
decrease in the odds of infection-related mortality [1]: ~40%
increase in the odds of clinical cure [1]: approximately 60%
Cmax in ELF [2]: 6.7 (4.8–10.1) mg/L
AUC0–8 h ([3]; JN, n = 6): 30.5 (26.0–36.8) mg/L∙h
AUC0–8 h ([3]; VMN, n = 18): 28.7 (15.1–68.1) mg/L∙h
Ccolistin over 2 mg/L, frequency of patients ([3]; 60 min, JN, n = 6): 16.7%
Ccolistin over 4 mg/L, frequency of patients ([3]; 60 min, JN, n = 6): 16.7%
Ccolistin over 2 mg/L, frequency of patients ([3]; 240 min, JN, n = 6): 100%
Ccolistin over 4 mg/L, frequency of patients ([3]; 240 min, JN, n = 6): 83.3%
Ccolistin over 2 mg/L, frequency of patients ([3]; 240 min, VMN, n = 18): 50%
Ccolistin over 4 mg/L, frequency of patients ([3]; 240 min, VMN, n = 18): 27.8%
Ccolistin over 2 mg/L, frequency of patients ([3]; 360 min, JN, n = 6): 83.3%
Ccolistin over 4 mg/L, frequency of patients ([3]; 360 min, JN, n = 6): 33.3%
Ccolistin over 2 mg/L, frequency of patients ([3]; 360 min, VMN, n = 18): 88.9%
Ccolistin over 4 mg/L, frequency of patients ([3]; 360 min, VMN, n = 18): 83.3%
Ccolistin over 2 mg/L, frequency of patients ([3]; 480 min, JN, n = 6): 0%
Ccolistin over 4 mg/L, frequency of patients ([3]; 480 min, JN, n = 6): 0%
Ccolistin over 2 mg/L, frequency of patients ([3]; 480 min, VMN, n = 18): 41.2%
Ccolistin over 4 mg/L, frequency of patients ([3]; 480 min, VMN, n = 18): 17.6%
Volume of distribution/ fraction of dose absorbed ([3]; JN, n = 6): 4.5 (3.5–5.1) L
Clearance/fraction of dose absorbed ([3]; JN, n = 6): 1.8 (1.5–2.1) L/h
Cmax ([3]; JN, n = 6): 7.4 (6.2–10.3) mg/L
AUC0–24 ([3]; JN, n = 6): 91.5 (78.1–110.3) mg/L∙h
Cmin ([3]; JN, n = 6): 1.1 (0.9–1.2) mg/L
Tmax ([3]; JN, n = 6): 4.3 (3.5–4.3) h
Volume of distribution/ fraction of dose absorbed ([3]; VMN, n = 18): 1.7 (0.8–5.2) L
Clearance/fraction of dose absorbed ([3]; VMN, n = 18): 1.4 (0.8–3.6) L/h
Cmax ([3]; VMN, n = 18): 10.4 (4.7–22.6) mg/L
AUC0–24 ([3]; VMN, n = 18): 86.2 (46.0–185.9) mg/L∙h
Cmin ([3]; VMN, n = 18): 0.4 (0.1–0.8) mg/L
Tmax ([3]; VMN, n = 18): 6.5 (6.3–6.6) h
level at 1 h ([3]; JN, n = 6): 1200 ng/mL
level at 1 h ([3]; VMN, n = 18): 700 ng/mL
level at 4 h ([3]; JN, n = 6): 6420 ng/mL
level at 4 h ([3]; VMN, n = 18): 2100 ng/mL
level at 6 h ([3]; JN, n = 6): 3300 ng/mL
level at 6 h ([3]; VMN, n = 18): 8600 ng/mL
level at 8 h ([3]; JN, n = 6): 1300 ng/mL
level at 8 h ([3]; VMN, n = 18): 1420 ng/mL
Kp ([3]; JN, n = 6): 4.8
Kp ([3]; VMN, n = 18): 5.5
